Laboratory results published in patent US20090305955A1, “Cyclopeptide with Anti-Cancer Activity Derived from Collagen Type IV” (priority 2006, published 2009).
Where a SMILES comes first, the peptide text is derived from it.

Columns and labels:
[1] = system: UACC-903 human melanoma cells; assay: In vitro proliferation test (Wst-1 reagent); format: cell-based; conditions: 48 hours
Experimental: FIG. 9: In vitro proliferation test for human melanoma cells UACC-903 in the presence of the cyclopeptide YSNSG (SEQ ID NO: 3). The UACC-903 cells were incubated for 48 hours in 24-well plates, with a control medium (negative control, white bar), a linear heptapeptide CNYYSNS (SEQ ID NO: 5) (positive control, black bar) or concentrations of cyclopeptide YSNSG (SEQ ID NO: 3) varying from 5 μM to 20 μm (grey bars).
B16F1 cells, a metastasic sub-line of B16 murine melanoma pulmonary cells (d-Dr M Grégoire, INSERM U419, Nantes, France) were cultivated in RPMI 1640 medium, supplemented with 5% foetal calf serum (FCS) in 25 cm^2 flasks (Nunclon, VWR Int, Strasbourg, France) in a humid atmosphere containing 5% CO2. UACC-903 cells, a melanoma cell line (Dr J Trent, Phoenix, Ariz.) were cultivated in DMEM medium containing 4.5 g/l glucose, supplemented with 5% FCS in 25 cm^2 flasks (Nunclon) in a moist atmosphere containing 5% CO2. HMEC-1 cells (human microvascular entothelial cells; E W Ades, Center for Disease Control and Prevention, Atlanta, Ga.) and HUVEC cells (human umbilical vein endothelial cells) were cultivated in endothelial cell growth medium (ECGM) supplemented with ECGS/H at 0.4% (by weight), 2% (by volume) foetal calf serum, epidermal growth factor (EGF) 10 ng/ml, 1 μg/ml of hydrocortisone, 50 ng/ml of amphotericin B and 50 μg/ml of gentamicin.
Cell proliferation was determined using the reagent Wst-1 following the manufacturer's instructions. This reagent contains a tetrazolium salt which is reduced by mitochondrial oxido-reductases and allows the proliferation and viability of cells to be evaluated. Its reduction gives rise to a soluble formazan derivative which is yellow in colour. Before reaching confluence, the cells were washed twice with a saline solution buffered with phosphate (phosphate buffered saline; PBS) to remove SVF residues and incubated for 48 hours in DMEM medium, in the presence or absence of synthetic peptides at concentrations of 0 to 20 μM. The medium was recovered then centrifuged at 500 g for 10 min at 4° C. to remove cell debris. The protein contents of the medium obtained was determined using Bradford's method using SAB as the reference.

MMP-2 = assay: Zymography in the presence of gelatine, conditioned medium of UACC-903 cells; format: cell-based, human; conditions: cyclopeptide 5 to 20 μM, linear heptapeptide 20 μM
Experimental: (§1) FIG. 11: Effect of YSNSG (SEQ ID NO: 3) cyclopeptide on secretion of MMP-2 and MMP-9. The secretion of MMP-2 and MMP-9 was analyzed by zymography in the presence of gelatine (A), on a medium conditioned by UACC-903 cells in the absence of peptide (negative control, white bar), on cells treated with linear heptapeptide CNYYSNS (SEQ ID NO: 5) (20 μM) (positive control, black bar) or cells treated with concentrations of 5 μM to 20 μM of cyclopeptide (grey bars) YSNSG (SEQ ID NO: 3). The conditioned medium was collected and analyzed as described in the method. Quantification was carried out using Bio 1D software. B: quantification of proMMP2; C: quantification of proMMP-9 (A.U.: arbitrary unit);
(§2) The expression of MMP-2 and MMP-9 in a conditioned medium of UACC-903 cells, treated or not treated with synthetic peptides, was analyzed by zymography in the presence of gelatine as described above (Pasco et al, 2000(a)). The secretion of TIMP-2 was analyzed in a conditioned medium of UACC-903 cells by reverse zymography in the presence of gelatine, as described above (Pascal et al, 2000(a)).

MMP-9 = assay: as above; format: cell-based, human; conditions: cyclopeptide 5 to 20 μM, linear heptapeptide 20 μM
Experimental: as §1, §2

[2] = system: B16F1 murine melanoma cells; assay: Measurement of in vivo tumour growth, pre-incubated B16F1 cells injected s.c.; design: species or system C57BL6 mice; conditions: day 20; for in vivo tumour growth: B16F1 cells pre-incubated 15 minutes with 20 μM peptide, s.c. in C57BL6 mice
Experimental: FIG. 16: In vivo tumour growth in the presence of YSNSG (SEQ ID NO: 3) cyclopeptide. B16F1 cells were incubated for 15 minutes with a control medium (negative control, white diamonds), with the linear heptapeptide CNYYSNS (SEQ ID NO: 5) (20 μM) (positive control, black diamonds) or with the cyclopeptide YSNSG (SEQ ID NO: 3) at a concentration of 20 μM (grey diamonds), then injected subcutaneously into syngenic C57BL6 mice (2.5×10^5 cells per mouse). The tumour volume was measured on the 20th day;
Female C57BL6 mice (mean body weight 18 to 20 g) were purchased from Harlan France (Gannat, France). The animals were placed in individual cages at a constant temperature and humidity; food and water were supplied ad libitum. All of the mice underwent a 1 week acclimatization period before commencing the experiments. The in vivo experiments were carried out in accordance with the recommendations of the Centre National de la recherché Scientifique (CNRS, National Centre for Scientific Research).
A suspension of B16F1 cells (2.5×10^5 cells in RPMI 1640 medium) which may or may not have been pre-treated with the cyclopeptide YSNSG (SEQ ID NO: 3) (20 μM) was injected subcutaneously into the left flank of syngenic mice from a different series. The mice were sacrificed on day 20 and the tumour size was measured. The volume of the tumours was determined by the relationship V=½A×B^2 in which A and B respectively represent the largest and the smallest dimension of the tumour (Wald et al).

β1 sub-unit of integrin = assay: β1 integrin immunolabelling, HUVEC cells; format: cell-based, human; conditions: 20 μM, 48 h
Experimental: FIG. 23: Effect of YSNSG (SEQ ID NO: 3) cyclopeptide on the distribution of β1 integrin subunits on the surface of HUVEC cells. The cells were cultivated on glass slides in the absence (control) or in the presence of 20 μM of YSNSG (SEQ ID NO: 3) cyclopeptide. After 48 h of incubation, the cells were fixed and incubated in the presence of antibodies directed against the β1 integrin subunit. The slides were observed using a confocal microscope.
The cells were seeded onto sterile glass slides placed in 24-well plates (2×10^4 cells/well) in a suitable medium containing 5% serum in the presence or absence of YSNSG (SEQ ID NO: 3) cyclopeptide. After 24 and 48 hours incubation, the cells were fixed for 15 minutes in methanol. Three washes of 5 minutes in TBS-T were carried out, then the cells were incubated for 30 minutes at ambient temperature in a saturation solution (TBS-T containing 3% BSA). The cells were then incubated for 2 hours at ambient temperature in the presence of primary antibody diluted to 1/100 in TBS-T containing 3% BSA.

In the case of “CNYYSNS (Synthetic linear heptapeptide) [linear peptide NC1 [α3(IV) 185-191], the 7 N-terminal amino acids of the 185-203 domain; positive control, reference compound]”, the “In vitro proliferation of UACC-903 human melanoma cells, change vs control” value ([1]; linear heptapeptide positive control, concentration not given) is reported as −45%, the “secretion of MMP-2” value (MMP-2) is reported as “No significant change” and the “secretion of MMP-9” value (MMP-9) is reported as “No significant change”. For the same compound, the “in vivo tumour growth” value [2] was “inhibited tumour growth”.
With `NC(=O)CC1NC(=O)C(CO)NC(=O)C(Cc2ccc(O)cc2)NC(=O)CNC(=O)C(CO)NC1=O` (stereo not drawn) [cyclopeptide YSNSG, cyclopeptide YSNSG (SEQ ID NO: 3)] (cyclo(GYSNS); configuration not given here) the “inhibited the proliferation of UACC-903 melanoma cells” value (“inhibited the proliferation” below) ([1]; 5 μM) was 27%, the “inhibited the proliferation” value ([1]; 10 μM) was 29% and the “inhibited the proliferation” value ([1]; 20 μM) was 40%. The “secretion of MMP-2” value (MMP-2) was “No significant change”, the “secretion of MMP-9” value (MMP-9) was “No significant change” and the “in vivo tumour growth” value [2] was “inhibited tumour growth”. The “reduction in tumour volume” value ([2]; B16F1 cells pre-treated with 20 μM, no re-injection of peptide, C57BL6 mice) was 46% and the “Expression of the β1 sub-unit of integrin at the cellular periphery” value (β1 sub-unit of integrin) was “enhanced”.
